According to ChEMBL document CHEMBL1152057, “A note of caution in the use of receptor binding assays to screen marine organisms: the action of halistanol trisulphate on adenosine receptors” (Bioorg Med Chem Lett, 1992):

Key:
Adenosine receptor A1 [1] = target: T1, Adenosine receptor A1 (Rattus norvegicus, UniProt P25099); experiment: Agonistic activity against adenosine A1 receptor; assay type: functional
T1 sequence (P25099 whole entry): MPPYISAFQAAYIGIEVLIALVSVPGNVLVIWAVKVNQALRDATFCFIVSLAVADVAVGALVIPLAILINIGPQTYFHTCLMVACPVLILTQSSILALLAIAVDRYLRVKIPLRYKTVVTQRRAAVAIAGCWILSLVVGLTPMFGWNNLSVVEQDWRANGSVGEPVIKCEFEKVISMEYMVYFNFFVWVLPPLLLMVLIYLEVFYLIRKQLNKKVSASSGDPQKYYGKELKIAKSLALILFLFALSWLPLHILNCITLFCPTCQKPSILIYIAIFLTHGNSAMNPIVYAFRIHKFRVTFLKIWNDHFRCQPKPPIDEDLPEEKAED

[2] = target: T2, Adenosine receptor A1 (Rattus norvegicus) (UniProt P25099); experiment: Bmax value for adenosine A1 receptor binding at 14.5 uM
T2 sequence (whole entry): T1 sequence (P25099 whole entry)

[3] = target: T2, Adenosine receptor A1 (Rattus norvegicus); experiment: Bmax value for adenosine A1 receptor binding at 145 uM
Adenosine receptor A1 [4] = target: T1, Adenosine receptor A1; experiment: Kd value for adenosine A1 receptor binding at 14.5 uM
Adenosine receptor A1 [5] = target: T1, Adenosine receptor A1; experiment: Kd value for adenosine A1 receptor binding at 145 uM

CC(CCC(C)C(C)(C)C)C1CC[C@H]2[C@@H]3C[C@H](OS(=O)(=O)O)C4C[C@H](OS(=O)(=O)O)[C@@H](OS(=O)(=O)O)CC4(C)[C@H]3CCC12C (stereo partly specified)
IC50 (Adenosine receptor A1 [1]): 120000 nM | Bmax [2]: 346 fmol/mg | Bmax [3]: 319 fmol/mg | Kd (Adenosine receptor A1 [4]): 1.39 nM | Kd (Adenosine receptor A1 [5]): 10.6 nM

COc1cc(-c2oc3c(OC)cc(CCCO)cc3c2C=O)ccc1O
IC50 (Adenosine receptor A1 [1]): 17 nM
